Source: patent US9334267B2, “RAF inhibitor compounds” (Deciphera Pharmaceuticals, LLC, priority 2012, dated 2016)

What was measured:
human B-Raf V600E = biological target: T1, human B-Raf V600E (Homo sapiens, UniProt P15056, V600E); test: Enzymatic assay of B-Raf V600E kinase activity (Raf/MEK1 ATPase, coupled PK/LDH, A340); assay type: biochemical; conditions: read-out: Enzyme IC50, nM B-Raf V600E
T1 construct: B-RafV600E (residues 433-726 containing V600E mutation) containing an N-terminal purification tag is expressed and purified; made in house
Procedure: Test compounds are evaluated for their inhibitory activities against one or more of human wild type B-Raf, human wild type C-Raf, human B-Raf V600E, human B-Raf V600E+T529I or human B-Raf V600E+G468A. T529I is a threonine to isoleucine B-Raf gatekeeper mutation and G468A is a B-Raf secondary mutation at G1403C in exon 11. The enzymatic assays of B-Raf, C-Raf and B-Raf mutations evaluate a property of Raf and MEK1 complex, which in the presence of ATP, catalyzes an enhanced ATP hydrolysis (Rominger, et al, Arch. Biochem. Biophys. 2007, 464: 130-137; US Patent Publication No. 2006/0211073). The ADP formed is monitored by the well-known coupled PK/LDH (pyruvate kinase/lactate dehydrogenase) system in the form of NADH oxidation, which can be monitored and detected spectrophotometrically by absorbance at 340 nm (A340; for principal of the method see Schindler et al, Science, 2000, 289: 1938-1942). Raf activated MEK1 ATPase activity is a property shared by all forms of Raf proteins.
B-RafV600E (residues 433-726 containing V600E mutation) containing an N-terminal purification tag is expressed and purified essentially as described previously (Wan et al, Cell, 2004, 116, 855-867).
Test compounds are evaluated for their inhibitory activities against one or more of wild type B-Raf, wild type C-Raf, B-Raf V600E, B-Raf V600E+T529I and B-Raf V600E+G468A. T529I is a B-Raf gatekeeper mutation and G468A is a B-Raf secondary mutation. The enzymatic assays of B-Raf, C-Raf and B-Raf mutations evaluate a property of Raf and MEK1 complex, which in the presence of ATP, catalyzes an enhanced ATP hydrolysis (Rominger, et al, Arch. Biochem. Biophys. 2007, 464: 130-137). The ADP formed is monitored by the well-known coupled PK/LDH (pyruvate kinase/lactate dehydrogenase) system in the form of NADH oxidation, which can be monitored and detected by absorbance at 340 nm (A340; for principal of the method see Schindler et al, Science, 2000, 289: 1938-1942). Raf activated MEK1 ATPase activity is a property shared by all forms of Raf proteins. In the B-Raf wild type enzymatic assay, the reaction mixture contains 1.2 nM B-Raf, 30 nM MEK1, 1000 uM ATP, 3.5 units (per 100 ul) of PK, 5 units (per 100 ul) of LDH, 1 mM phosphoenol pyruvate (PEP), and 280 uM of NADH. In the C-Raf assay, the reaction mixture contains 0.6 nM C-Raf, 26 nM MEK1, 2000 uM ATP, and the same amount of PK, LDH, PEP and NADH as above. In the B-Raf V600E assay, the reaction mixture contains […] B-Raf V600E, 26 nM MEK1, 200 uM ATP and the same amount of PK, LDH, PEP and NADH as above. In the B-RafV600E+T529I assay, the reaction mixture contains 6.2 nM B-Raf V600E+T529I, 30 nM MEK1, 200 uM ATP and the same amount of PK, LDH, PEP and NADH as above. In the B-Raf V600E+G468A assay, the reaction mixture contains 3.5 nM B-Raf, 30 nM MEK1, 200 uM ATP and the same amount of PK, LDH, PEP and NADH as above. All assays are started by mixing the above mixture with test compound and monitoring at A340 continuously for approximately 5 hr. […] In the aforementioned assays, the enzyme constructs can be screened prior to or after cleavage of the N-terminal purification tag.

human wild type c-KIT = biological target: T2, human wild type c-KIT (Homo sapiens, UniProt P10721); test: Enzymatic assay of c-Kit kinase activity (poly E4Y phosphorylation, coupled PK/LDH); assay type: biochemical
T2 construct: GST (N); made in house
Description: c-Kit is an important oncogene, and its overexpression and genetic mutations often occur in melanoma and gastrointestinal stromal tumor (GIST) patients. In the c-Kit enzymatic assay, the phosphorylation of poly E4Y by ATP catalyzed by human c-Kit is monitored spectrophotometrically. The ADP produced from the kinase reaction is coupled to pyruvate kinase/lactate dehydrogenase (PK/LDH) reactions where NAD is formed from pyruvate and NADH. NADH can be detected by absorbance at 340 nm, as described above for enzymatic assays of kinase activities of B-Raf, C-Raf and B-Raf mutations.
The assay reaction mixture includes 6 nM human wild type c-KIT, 1 mg/mL Poly (Glu,Tyr) (Sigma), 1 mM Phosphoenol-pyruvate, 280 μM NADH, 5 U/3.5 U (per 100 ul) Pyruvate Kinase/Lactate Dehydrogenase, 85 mM Tris, pH 7.5, 17 mM MgCl2, 0.0042% Triton® X-100, 0.005% BSA, 1% DMSO. Test compound is incubated with the reaction mixture for 0.5 hour before adding 200 μM ATP to start the reaction at 30° C.

HT-29 cells = test: HT-29 cell proliferation assay (resazurin); assay type: cell-based; conditions: Homo sapiens, V600E mutation, read-out: Cell Proliferation Inhibition IC50, nM HT-29
Procedure: HT-29 cells (catalog #HTB-38) are obtained from the American Type Culture Collection (ATCC, Manassas, Va.). Briefly, cells are grown in McCoy's 5A supplemented with 10% characterized fetal bovine serum (Invitrogen, Carlsbad, Calif.), and 1% Penicillin/Streptomycin/L-Glutamine at 37 degrees Celsius, 5% CO2, and 95% humidity. Cells are allowed to expand until reaching 75-90% confluency at which point they are subcultured or harvested for assay use. A serial dilution of test compound is dispensed into a 384-well black clear bottom plate in triplicate. One thousand two-hundred fifty cells are added per well in 50 μL complete growth medium in the 384-well plate. Plates are incubated for 67 hours at 37 degrees Celsius, 5% CO2, and 95% humidity. At the end of the incubation period, 10 μL of a 440 μM solution of resazurin (Sigma, St. Louis, Mo.) in PBS is added to each well of the plate and plates are incubated for an additional 5 hours at 37 degrees Celsius, 5% CO2, and 95% humidity. Plates are read on a Synergy2 reader (Biotek, Winooski, Vt.) using an excitation of 540 nm and an emission of 600 nm. Data is analyzed using Prism software (Graphpad, San Diego, Calif.) to calculate IC50 values.
The A375, HT-29, and Colo-205 cells (ATCC) harbor a V600E mutation.

Sk-Mel-2 cells = test: SK-Mel-2 cell proliferation assay (resazurin); assay type: cell-based; conditions: Homo sapiens, N-Ras mutation B-Raf wild type, read-out: Cell Proliferation Inhibition IC50, nM SK-Mel-2

T2 sequence (P10721 26-976): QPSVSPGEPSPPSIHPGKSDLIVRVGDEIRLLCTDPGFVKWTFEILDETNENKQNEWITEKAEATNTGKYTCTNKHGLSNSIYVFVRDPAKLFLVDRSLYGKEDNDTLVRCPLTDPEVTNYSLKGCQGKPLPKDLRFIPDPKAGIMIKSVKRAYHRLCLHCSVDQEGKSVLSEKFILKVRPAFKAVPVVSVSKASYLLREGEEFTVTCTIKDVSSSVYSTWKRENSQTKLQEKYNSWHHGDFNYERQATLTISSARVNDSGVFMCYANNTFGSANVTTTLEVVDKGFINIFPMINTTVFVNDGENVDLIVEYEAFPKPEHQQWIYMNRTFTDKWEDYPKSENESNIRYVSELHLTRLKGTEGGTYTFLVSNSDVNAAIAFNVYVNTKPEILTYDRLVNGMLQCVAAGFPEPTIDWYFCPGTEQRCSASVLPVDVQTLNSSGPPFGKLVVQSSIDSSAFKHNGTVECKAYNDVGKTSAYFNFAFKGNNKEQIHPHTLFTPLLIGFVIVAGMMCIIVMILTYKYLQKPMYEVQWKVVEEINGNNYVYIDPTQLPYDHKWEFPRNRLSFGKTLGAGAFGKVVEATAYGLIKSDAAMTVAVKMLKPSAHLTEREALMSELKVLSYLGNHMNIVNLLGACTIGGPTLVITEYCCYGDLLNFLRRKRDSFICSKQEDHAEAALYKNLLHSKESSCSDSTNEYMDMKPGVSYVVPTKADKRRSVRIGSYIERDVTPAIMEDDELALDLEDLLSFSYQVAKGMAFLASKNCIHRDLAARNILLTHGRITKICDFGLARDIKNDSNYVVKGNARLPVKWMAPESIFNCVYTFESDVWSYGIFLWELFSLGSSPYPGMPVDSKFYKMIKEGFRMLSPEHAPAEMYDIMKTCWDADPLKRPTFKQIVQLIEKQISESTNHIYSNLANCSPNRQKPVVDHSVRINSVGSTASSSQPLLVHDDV
T1 sequence (P15056 433-726 V600E): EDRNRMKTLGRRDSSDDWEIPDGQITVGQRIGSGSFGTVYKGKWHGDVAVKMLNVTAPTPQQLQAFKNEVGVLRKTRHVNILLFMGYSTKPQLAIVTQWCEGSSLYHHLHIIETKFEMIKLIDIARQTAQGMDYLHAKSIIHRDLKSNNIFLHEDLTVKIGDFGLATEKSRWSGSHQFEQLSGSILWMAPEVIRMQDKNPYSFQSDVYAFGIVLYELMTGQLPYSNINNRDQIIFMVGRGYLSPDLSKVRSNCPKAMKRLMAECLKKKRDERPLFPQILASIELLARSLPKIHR

SMILES	IC50 (human B-Raf V600E)	IC50 (human wild type c-KIT)	IC50 (HT-29 cells)	IC50 (Sk-Mel-2 cells)
CNc1ncc2cc(-c3ccc(F)c(NC(=O)NCCC(C)(C)C)c3)c(C)nc2n1 [Example 2, 1-(3,3-Dimethylbutyl)-3-(2-fluoro-5-(7-methyl-2-(methylamino)pyrido[2,3-d]pyrimidin-6-yl)phenyl)urea]	< 150 nM	< 150 nM	< 100 nM	< 100 nM
Cc1cc(F)c(NC(=O)NCCC2(C)CC2)cc1-c1cc2cnc(N)nc2nc1C [Example 23, 1-(5-(2-Amino-7-methylpyrido[2,3-d]pyrimidin-6-yl)-2-fluoro-4-methylphenyl)-3-(2-(1-methylcyclopropyl)ethyl)urea]	< 150 nM	< 150 nM	< 100 nM	100 to 1000 nM
CNc1ncc2cc(-c3cc(NC(=O)NCCC(C)(C)C)c(F)cc3C)cnc2n1 [Example 35, 1-(3,3-Dimethylbutyl)-3-[2-fluoro-4-methyl-5-(2-methylaminopyrido[2,3-d]pyrimidin-6-yl)phenyl]urea]	< 150 nM	< 150 nM	< 100 nM	< 100 nM

The remaining lines, values ahead:

IC50 (human B-Raf V600E)	IC50 (human wild type c-KIT)	IC50 (HT-29 cells)	IC50 (Sk-Mel-2 cells)	SMILES
< 150 nM	< 150 nM	< 100 nM	100 to 1000 nM	CNc1ncc2cc(-c3cc(NC(=O)NCCC(C)(C)C#N)c(F)cc3C)c(C)nc2n1 [Example 3, 1-(3-Cyano-3-methylbutyl)-3-(2-fluoro-4-methyl-5-(7-methyl-2-(methylamino)pyrido[2,3-d]pyrimidin-6-yl)phenyl)urea]
< 150 nM	< 150 nM	< 100 nM	100 to 1000 nM	Cc1cc(F)c(NC(=O)NCCC(C)(C)C)cc1-c1cc2cnc(NCCN(C)C)nc2nc1C [Example 17, 1-[5-[2-(2-Dimethylaminoethylamino)-7-methyl-pyrido[2,3-d]pyrimidin-6-yl]-2-fluoro-4-methyl-phenyl]-3-(3,3-dimethylbutyl)urea]
< 150 nM	< 150 nM	< 100 nM	100 to 1000 nM	CNc1ncc2cc(-c3cc(NC(=O)NCCC(C)(C)C(F)(F)F)c(F)cc3C)c(C)nc2n1 [Example 27, 1-(2-Fluoro-4-methyl-5-(7-methyl-2-(methylamino)pyrido[2,3-d]pyrimidin-6-yl)phenyl)-3-(4,4,4-trifluoro-3,3-dimethylbutyl)urea]
< 150 nM	< 150 nM	< 100 nM	100 to 1000 nM	Cc1cc(F)c(NC(=O)NCCC(C)(C)C)cc1-c1cc2cnc(NCc3cn(C)cn3)nc2nc1C [Example 22, 1-(3,3-Dimethylbutyl)-3-(2-fluoro-4-methyl-5-(7-methyl-2-(((1-methyl-1H-imidazol-4-yl)methyl)amino)pyrido[2,3-d]pyrimidin-6-yl)phenyl)urea]
